Results from ChEMBL document CHEMBL3822454, “On the vasoprotective mechanisms underlying novel β-phosphorylated nitrones: Focus on free radical characterization, scavenging and NO-donation in a biological model of oxidative stress” (Eur J Med Chem, 2016).
Values belong to the molecule of their own block, whether it stands above or below them. Calls of active or inactive are those of the source. No cut-off for these calls is given here.

Tests used:
A549 [1] = assay: Cytotoxicity against human A549 cells assessed as reduction in cell viability measured after 48 hrs by MTT assay; type: cell-based; conditions: A549, 48 h
[2] = Cytotoxicity against BAECs assessed as decrease in total intracellular LDH content at 15 mM measured after 3 hrs by LDH assay relative to vehicle control; type: cell-based, Bos taurus; parameters: scale not given: the % may be the effect or the level left; conditions: cattle, baec, 15000 µM
Aorta [3] = assay: (§1) Protection against NADPH-induced superoxide-mediated tissue damage in Sprague-Dawley rat endothelium-intact aortic rings assessed as decomposition of methyl radical adduct preincubated for 30 mins at 200 uM in presence of DTC prior to NADPH addition after 60 mins followed by renewal of media with NADPH-compound mixture measured after 4 days by EPR spectroscopy relative to control; type: functional
Aorta [4] = assay: (§2) Vasoprotective activity against oxidative stress-induced impairment of ACh-stimulated vasorelaxation in Sprague-Dawley rat endothelium-intact aortic rings assessed as reduction in L-phenylephrine hydrochloride-induced contraction preincubated for 10 to 20 mins in presence of xanthine-xanthine oxidase system prior to L-phenylephrine hydrochloride addition; type: functional
A549 [5] = assay: Cytotoxicity against human A549 cells assessed as reduction in cell viability measured after 48 hrs by FMCA assay; type: cell-based; conditions: A549, 48 h
[6] = Cytotoxicity against BAEC assessed as reduction in cell viability measured after 24 hrs by MTT assay; parameters: species or system Bos taurus; conditions: cattle
Aorta [7] = assay: as §2, with “system at 200 uM” for “system”, “addition relative to ACh” for “addition”; type: functional
[8] = Antioxidant activity assessed as DPPH scavenging activity measured after 3 mins by spectrophotometric method; type: physicochemical
Aorta [9] = assay: Protection against NADPH-induced superoxide-mediated tissue damage in Sprague-Dawley rat endothelium-intact aortic rings assessed as inhibition of protein carbonyl formation at 200 uM pre-incubated for 30 mins in presence of DTC prior to NADPH addition measured after 60 mins using 7-hydrazino-4-nitrobenzo-2,1,3-oxadiazole by fluorimetric analysis; type: functional
A549 [10] = assay: Cytotoxicity against human A549 cells assessed as reduction in cell viability measured after 48 hrs by luminescence-based ATP assay; conditions: A549, 48 h
[11] = Antioxidant activity assessed as AAPH free radical scavenging activity measured as trolox equivalent by TRAP assay; type: physicochemical
A549 [12] = assay: Cytotoxicity against human A549 cells assessed as reduction in cell viability measured after 24 hrs by MTT assay; type: cell-based; conditions: a549, 24 h
[13] = Antioxidant activity assessed as inhibition of […]-xanthine oxidase system-mediated superoxide formation measured over 7 mins by lucigenin-based chemiluminescence analysis; type: physicochemical
Aorta [14] = assay: Potentiation of SNP-induced vasorelaxant activity in Sprague-Dawley rat endothelium-intact aortic rings assessed as reduction in L-phenylephrine hydrochloride-induced contraction at 200 uM relative to SNP; type: functional
[15] = Half life of the compound in phosphate buffer at pH 6 by UV-illumination; type: ADME
Aorta [16] = assay: as §1, with “as” for “as decomposition of”, “formation pre-incubated” for “preincubated”, “addition measured” for “addition”, “20 mins in presence of DPI” for “4 days”, “spectroscopy” for “spectroscopy relative to control”; type: functional
Aorta [17] = assay: Protection against superoxide-mediated tissue damage in Sprague-Dawley rat endothelium-intact aortic rings assessed as methyl radical adduct formation preincubated for 30 mins at 200 uM in presence of DTC measured after 4 days by EPR spectroscopy; type: functional
[18] = Cytotoxicity against BAEC assessed as decrease in total intracellular LDH content at 15 mM measured after 1 hr by LDH assay relative to vehicle-treated control; type: cell-based, Bos taurus; parameters: scale not given: the % may be the effect or the level left; conditions: cattle, 15000 µM
[19] = molecular target: Xanthine dehydrogenase/oxidase (Homo sapiens, UniProt P47989); assay: Inhibition of xanthine oxidase (unknown origin) using xanthine as substrate assessed as inhibition of uric acid formation at 1 to 100 uM after 30 mins by spectrophotometric method; conditions: 0.5 h
Sequence of Xanthine dehydrogenase/oxidase (P47989 whole entry): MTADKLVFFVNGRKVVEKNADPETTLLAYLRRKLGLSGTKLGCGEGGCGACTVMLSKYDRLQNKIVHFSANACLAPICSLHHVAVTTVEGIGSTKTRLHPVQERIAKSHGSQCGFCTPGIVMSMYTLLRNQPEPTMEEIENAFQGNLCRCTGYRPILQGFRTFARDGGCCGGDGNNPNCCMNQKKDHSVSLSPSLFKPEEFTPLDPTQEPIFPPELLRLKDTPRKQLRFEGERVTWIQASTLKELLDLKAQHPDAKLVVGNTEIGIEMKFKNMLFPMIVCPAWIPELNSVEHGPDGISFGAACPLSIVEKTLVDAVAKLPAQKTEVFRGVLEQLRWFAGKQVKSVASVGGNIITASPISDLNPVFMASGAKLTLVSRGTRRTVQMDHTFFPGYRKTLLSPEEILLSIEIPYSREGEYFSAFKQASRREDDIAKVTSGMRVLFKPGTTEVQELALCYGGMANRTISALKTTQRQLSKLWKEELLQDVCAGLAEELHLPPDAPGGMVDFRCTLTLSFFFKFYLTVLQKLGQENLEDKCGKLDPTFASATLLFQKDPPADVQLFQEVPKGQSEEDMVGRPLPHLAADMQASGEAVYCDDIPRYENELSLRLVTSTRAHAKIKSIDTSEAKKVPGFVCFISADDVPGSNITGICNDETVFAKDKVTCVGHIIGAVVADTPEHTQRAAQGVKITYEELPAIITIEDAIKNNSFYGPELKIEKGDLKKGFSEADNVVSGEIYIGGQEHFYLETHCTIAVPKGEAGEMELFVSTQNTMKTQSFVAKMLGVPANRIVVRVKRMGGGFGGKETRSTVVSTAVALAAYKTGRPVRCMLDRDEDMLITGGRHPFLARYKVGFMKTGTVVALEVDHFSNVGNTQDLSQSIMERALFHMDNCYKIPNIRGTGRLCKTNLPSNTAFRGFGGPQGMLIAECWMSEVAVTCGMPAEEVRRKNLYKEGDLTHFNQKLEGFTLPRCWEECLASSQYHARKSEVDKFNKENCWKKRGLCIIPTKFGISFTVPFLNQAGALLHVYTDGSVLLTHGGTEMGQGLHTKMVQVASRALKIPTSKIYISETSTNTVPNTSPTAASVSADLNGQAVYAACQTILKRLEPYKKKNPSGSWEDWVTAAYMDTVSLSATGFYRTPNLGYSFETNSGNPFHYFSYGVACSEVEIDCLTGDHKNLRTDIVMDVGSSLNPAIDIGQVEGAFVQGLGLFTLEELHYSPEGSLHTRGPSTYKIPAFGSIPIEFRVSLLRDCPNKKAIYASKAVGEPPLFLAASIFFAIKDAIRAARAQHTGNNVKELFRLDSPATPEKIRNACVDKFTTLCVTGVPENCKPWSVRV

Aorta [20] = assay: Toxicity in Sprague-Dawley rat endothelium-intact aortic rings at 15 mM measured after 20 mins; conditions: 15000 µM
[21] = Induction of nitric oxide release in water using Fe2+-MGD2 as nitric oxide trap at pH 6.56 measured 70 mins post UV-photolysis in dark condition by EPR spectroscopy; type: physicochemical; conditions: buffer, pH 6.56, 70 min
[22] = Induction of nitric oxide release in water using Fe2+-MGD2 as nitric oxide trap at pH 6.56 incubated in ambient light for 4.5 hrs by EPR spectroscopy; type: physicochemical; conditions: buffer, pH 6.56, 4.5 h
[23] = Cytotoxicity against BAECs assessed as reduction in cell viability measured after 24 hrs by neutral red assay; conditions: Bos taurus, BAEC

Structure (SMILES): CCOP(=O)(OCC)C(C)(C)/[N+]([O-])=C/c1ccccc1
IC50 (A549 [1]): 12.4 mM
Activity [2]: 19%
Activity (Aorta [3]): 30%
EC50 (Aorta [4]): 148 nM
IC50 (A549 [5]): 12.6 mM
IC10 [6]: 1.1 mM
Rmax (Aorta [7]): 75%
EC50 [8]: > 1 mM
inhibition (Aorta [9]): Active
IC50 (A549 [10]): 10.8 mM
Activity [11]: 0.02 equiv
IC10 (A549 [12]): 4.9 mM
IC50 [13]: 0.375 mM
Rmax (Aorta [14]): 100%

Structure (SMILES): CC(C)(C)N([O])C(O)c1ccccc1 (configuration not stated)
half-life [15]: 1.5 min

EC50 (Aorta [4]): 67.6 nM
EC50 [8]: 0.19 mM
inhibition (INH) [19]: Not Active
Activity [11]: 1.44 equiv
IC50 [13]: 0.0721 mM
Structure (SMILES): CCOP(=O)(OCC)C(C)(C)/[N+]([O-])=C/c1cc(OC)c(O)c(OC)c1
IC50 (A549 [1]): 15.3 mM
Activity [2]: 8%
Activity (Aorta [16]): inactive
Activity (Aorta [3]): < 5%
Activity (Aorta [17]): inactive
IC50 (A549 [5]): 12 mM
IC10 [6]: 2.6 mM
Activity [18]: < 10%
Rmax (Aorta [7]): 77%
inhibition (Aorta [9]): Active
IC50 (A549 [10]): 14.8 mM
Activity (Aorta [20]): Non-toxic
IC10 (A549 [12]): 6.1 mM
Rmax (Aorta [14]): 101%

Structure (SMILES): CCOP(=O)(OCC)C(C)(C)/[N+]([O-])=C/c1ccc(Cl)cc1
Activity [21]: Active
Activity [22]: Active

Activity [21]: Not Active
EC50 (Aorta [4]): 174 nM
EC50 [8]: > 1 mM
Activity [11]: 0.02 equiv
IC50 [13]: > 4 mM
Structure (SMILES): CC(C)(C)/[N+]([O-])=C/c1ccccc1
IC50 (A549 [1]): 10.8 mM
Activity [2]: 10%
Activity (Aorta [3]): 25%
IC50 [23]: 9.4 mM
IC50 (A549 [5]): 11.4 mM
IC10 [6]: 2.4 mM
Rmax (Aorta [7]): 62%
inhibition (Aorta [9]): inactive
IC50 (A549 [10]): 9.6 mM
IC10 (A549 [12]): 5.1 mM
Rmax (Aorta [14]): 98%
